Data taken from article PMC9600963, “Cation ATPase (ATP4) Orthologue Replacement in the Malaria Parasite Plasmodium knowlesi Reveals Species-Specific Responses to ATP4-Targeting Drugs” (mBio, 2022).

Key:
Format in all cases: cell-based
[1] = biological target: T1, PkATP4 (PkATP4^OR line) (Plasmodium knowlesi, UniProt A0A384LKC1); assay: growth inhibition of orthologue replacement parasite line, SYBR green I (whole-cell read-out); conditions: intact P. knowlesi parasites in erythrocytes, 27 h (one life cycle); not a direct enzyme assay
T1 construct: gene PKNH_1312000; untagged; intact parasites
T1 sequence (A0A384LKC1 1-1293): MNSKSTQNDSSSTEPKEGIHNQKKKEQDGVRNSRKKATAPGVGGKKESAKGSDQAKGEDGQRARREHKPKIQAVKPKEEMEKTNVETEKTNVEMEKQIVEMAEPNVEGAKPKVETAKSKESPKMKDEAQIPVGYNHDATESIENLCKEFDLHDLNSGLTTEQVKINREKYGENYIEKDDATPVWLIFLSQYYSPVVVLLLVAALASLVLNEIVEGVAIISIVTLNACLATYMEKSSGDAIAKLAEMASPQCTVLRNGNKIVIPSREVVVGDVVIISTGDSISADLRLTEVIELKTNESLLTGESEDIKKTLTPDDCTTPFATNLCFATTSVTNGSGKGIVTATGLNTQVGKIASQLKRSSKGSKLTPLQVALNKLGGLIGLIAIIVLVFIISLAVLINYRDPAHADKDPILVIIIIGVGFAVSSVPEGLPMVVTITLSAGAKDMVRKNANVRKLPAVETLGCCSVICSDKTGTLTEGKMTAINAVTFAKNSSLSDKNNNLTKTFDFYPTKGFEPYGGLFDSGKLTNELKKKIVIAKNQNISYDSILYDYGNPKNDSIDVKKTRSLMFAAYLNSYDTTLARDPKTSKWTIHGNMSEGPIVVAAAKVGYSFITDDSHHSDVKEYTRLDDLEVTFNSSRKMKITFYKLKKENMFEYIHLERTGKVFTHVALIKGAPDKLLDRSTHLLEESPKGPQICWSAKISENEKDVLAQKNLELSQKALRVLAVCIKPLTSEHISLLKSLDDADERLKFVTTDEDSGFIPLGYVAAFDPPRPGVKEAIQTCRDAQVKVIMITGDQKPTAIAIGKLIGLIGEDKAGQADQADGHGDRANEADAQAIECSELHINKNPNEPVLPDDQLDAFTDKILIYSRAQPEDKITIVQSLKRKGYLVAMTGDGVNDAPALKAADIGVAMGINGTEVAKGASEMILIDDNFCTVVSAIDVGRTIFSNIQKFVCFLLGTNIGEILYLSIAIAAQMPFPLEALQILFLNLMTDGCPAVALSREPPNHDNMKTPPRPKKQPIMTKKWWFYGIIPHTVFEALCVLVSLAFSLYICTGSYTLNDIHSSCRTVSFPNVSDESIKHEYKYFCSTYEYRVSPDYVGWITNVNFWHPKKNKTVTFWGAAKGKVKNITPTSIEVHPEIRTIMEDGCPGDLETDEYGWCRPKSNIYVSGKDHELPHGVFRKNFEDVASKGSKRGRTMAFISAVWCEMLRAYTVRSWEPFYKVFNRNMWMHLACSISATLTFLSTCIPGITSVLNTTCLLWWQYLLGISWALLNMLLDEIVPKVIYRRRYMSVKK
Text: growth inhibition of orthologue replacement parasite line, SYBR green I (whole-cell read-out) on PkATP4 (PkATP4^OR line)

[2] = biological target: T2, PmATP4 (PmATP4^OR line) (Plasmodium malariae, UniProt A0A1A8WBD6); assay: as above; conditions: intact P. knowlesi parasites in erythrocytes, 27 h (one life cycle); not a direct enzyme assay
T2 construct: gene ATP4; full-length recodonized coding region replacing pkatp4 in P. knowlesi A1-H.1; untagged; intact parasites
T2 sequence (A0A1A8WBD6 1-1380): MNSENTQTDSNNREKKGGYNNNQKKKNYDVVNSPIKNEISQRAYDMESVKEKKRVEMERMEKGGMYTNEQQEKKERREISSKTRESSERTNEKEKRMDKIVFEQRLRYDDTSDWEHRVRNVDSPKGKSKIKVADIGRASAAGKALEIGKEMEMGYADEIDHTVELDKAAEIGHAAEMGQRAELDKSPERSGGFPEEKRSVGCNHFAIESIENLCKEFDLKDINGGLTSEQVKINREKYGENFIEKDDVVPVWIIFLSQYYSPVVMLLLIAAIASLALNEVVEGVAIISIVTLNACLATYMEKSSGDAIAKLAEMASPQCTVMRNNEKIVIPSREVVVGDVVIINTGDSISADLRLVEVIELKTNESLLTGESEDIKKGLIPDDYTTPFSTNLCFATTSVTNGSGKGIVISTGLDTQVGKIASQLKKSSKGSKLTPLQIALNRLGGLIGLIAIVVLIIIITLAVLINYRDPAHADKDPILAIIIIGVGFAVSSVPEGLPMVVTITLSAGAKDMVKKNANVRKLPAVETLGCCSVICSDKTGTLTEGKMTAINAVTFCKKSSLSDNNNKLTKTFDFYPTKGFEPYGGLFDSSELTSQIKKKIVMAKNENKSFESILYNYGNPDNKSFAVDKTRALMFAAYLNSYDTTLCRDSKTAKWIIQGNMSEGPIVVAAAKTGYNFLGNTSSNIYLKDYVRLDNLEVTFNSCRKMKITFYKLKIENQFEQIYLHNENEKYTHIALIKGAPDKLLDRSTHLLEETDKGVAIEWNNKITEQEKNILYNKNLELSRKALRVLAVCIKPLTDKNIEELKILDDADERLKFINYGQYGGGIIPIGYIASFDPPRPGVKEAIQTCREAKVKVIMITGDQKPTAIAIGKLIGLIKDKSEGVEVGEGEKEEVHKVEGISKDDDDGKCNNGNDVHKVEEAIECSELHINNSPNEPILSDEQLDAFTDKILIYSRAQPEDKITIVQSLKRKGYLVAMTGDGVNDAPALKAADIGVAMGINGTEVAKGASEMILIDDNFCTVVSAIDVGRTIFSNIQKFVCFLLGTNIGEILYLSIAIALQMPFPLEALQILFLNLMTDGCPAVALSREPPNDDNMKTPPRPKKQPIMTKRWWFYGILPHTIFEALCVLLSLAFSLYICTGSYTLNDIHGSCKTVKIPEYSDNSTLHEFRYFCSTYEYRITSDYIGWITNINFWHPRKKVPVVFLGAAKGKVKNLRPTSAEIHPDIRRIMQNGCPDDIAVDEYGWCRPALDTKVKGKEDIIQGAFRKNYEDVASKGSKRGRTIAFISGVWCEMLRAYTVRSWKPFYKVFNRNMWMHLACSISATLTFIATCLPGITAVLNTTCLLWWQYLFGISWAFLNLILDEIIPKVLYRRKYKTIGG
Text: growth inhibition of orthologue replacement parasite line, SYBR green I (whole-cell read-out) on PmATP4 (PmATP4^OR line)

[3] = biological target: T3, PfATP4 (PfATP4^OR line) (Plasmodium falciparum, UniProt A0A143ZZK9); assay: SBFI fluorescence of intracellular Na+ in saponin-isolated trophozoites; conditions: 0.1 µM, physiological saline, pH 7.1, 37°C
T3 construct: gene ATP4; full-length recodonized coding region replacing pkatp4 in P. knowlesi A1-H.1; untagged; intact parasites
Text: SBFI fluorescence of intracellular Na+ in saponin-isolated trophozoites on PfATP4 (PfATP4^OR line)

[4] = biological target: T4, PvATP4 (PvATP4^OR line) (Plasmodium vivax, UniProt A5K0L8); assay: growth inhibition of orthologue replacement parasite line, SYBR green I (whole-cell read-out); conditions: intact P. knowlesi parasites in erythrocytes, 27 h (one life cycle); not a direct enzyme assay
T4 construct: gene PVX_084625; full-length recodonized coding region replacing pkatp4 in P. knowlesi A1-H.1; untagged; intact parasites
Text: growth inhibition of orthologue replacement parasite line, SYBR green I (whole-cell read-out) on PvATP4 (PvATP4^OR line)

[5] = biological target: T4, PvATP4 (PvATP4^OR line); assay: SBFI fluorescence of intracellular Na+ in saponin-isolated trophozoites; conditions: 0.1 µM, physiological saline, pH 7.1, 37°C
Text: SBFI fluorescence of intracellular Na+ in saponin-isolated trophozoites on PvATP4 (PvATP4^OR line)

[6] = biological target: T5, PocATP4 (PocATP4^OR line) (Plasmodium ovale, UniProt A0A1D3TM67); assay: as above; conditions: 0.1 µM, physiological saline, pH 7.1, 37°C
T5 construct: gene ATP4; full-length recodonized coding region replacing pkatp4 in P. knowlesi A1-H.1; untagged; intact parasites
T5 sequence (A0A1D3TM67 1-1433): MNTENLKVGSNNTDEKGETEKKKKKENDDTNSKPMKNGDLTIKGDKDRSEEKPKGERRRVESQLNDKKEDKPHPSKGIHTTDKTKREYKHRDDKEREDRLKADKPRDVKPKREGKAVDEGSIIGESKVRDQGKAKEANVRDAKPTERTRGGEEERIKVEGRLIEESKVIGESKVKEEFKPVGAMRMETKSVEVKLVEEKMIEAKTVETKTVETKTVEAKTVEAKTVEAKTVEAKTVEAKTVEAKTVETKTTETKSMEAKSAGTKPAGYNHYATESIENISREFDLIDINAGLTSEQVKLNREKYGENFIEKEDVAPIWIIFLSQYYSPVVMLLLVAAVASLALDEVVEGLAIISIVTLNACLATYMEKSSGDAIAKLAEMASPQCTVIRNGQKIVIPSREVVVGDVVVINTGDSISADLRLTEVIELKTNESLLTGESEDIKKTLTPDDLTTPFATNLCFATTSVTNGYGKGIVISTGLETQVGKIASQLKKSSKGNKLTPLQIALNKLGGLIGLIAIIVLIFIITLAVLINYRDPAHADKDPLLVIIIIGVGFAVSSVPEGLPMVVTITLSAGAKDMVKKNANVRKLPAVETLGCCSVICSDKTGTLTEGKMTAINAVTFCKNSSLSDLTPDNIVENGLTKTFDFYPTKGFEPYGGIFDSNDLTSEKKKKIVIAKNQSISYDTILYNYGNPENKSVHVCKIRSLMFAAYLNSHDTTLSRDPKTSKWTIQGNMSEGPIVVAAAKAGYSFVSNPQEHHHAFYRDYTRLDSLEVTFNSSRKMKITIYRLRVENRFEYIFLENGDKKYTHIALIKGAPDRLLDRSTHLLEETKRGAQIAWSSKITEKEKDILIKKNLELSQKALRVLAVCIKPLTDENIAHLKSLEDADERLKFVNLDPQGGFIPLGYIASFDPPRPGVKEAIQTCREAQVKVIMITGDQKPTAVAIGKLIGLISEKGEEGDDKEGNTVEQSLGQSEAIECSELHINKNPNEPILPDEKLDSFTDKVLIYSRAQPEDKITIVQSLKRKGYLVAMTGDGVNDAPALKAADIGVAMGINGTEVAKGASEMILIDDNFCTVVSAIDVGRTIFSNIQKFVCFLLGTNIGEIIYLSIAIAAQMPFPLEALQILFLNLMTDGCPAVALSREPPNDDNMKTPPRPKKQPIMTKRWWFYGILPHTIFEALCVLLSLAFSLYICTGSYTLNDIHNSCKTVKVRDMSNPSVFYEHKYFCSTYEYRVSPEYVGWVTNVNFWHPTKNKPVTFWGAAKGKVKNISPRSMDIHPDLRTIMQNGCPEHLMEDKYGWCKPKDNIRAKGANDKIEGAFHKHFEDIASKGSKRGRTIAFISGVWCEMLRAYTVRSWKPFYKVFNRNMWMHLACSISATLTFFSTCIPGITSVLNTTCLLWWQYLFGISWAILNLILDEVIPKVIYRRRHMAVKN
Text: SBFI fluorescence of intracellular Na+ in saponin-isolated trophozoites on PocATP4 (PocATP4^OR line)

[7] = biological target: T5, PocATP4 (PocATP4^OR line); assay: growth inhibition of orthologue replacement parasite line, SYBR green I (whole-cell read-out); conditions: intact P. knowlesi parasites in erythrocytes, 27 h (one life cycle); not a direct enzyme assay
Text: growth inhibition of orthologue replacement parasite line, SYBR green I (whole-cell read-out) on PocATP4 (PocATP4^OR line)

[8] = biological target: T2, PmATP4 (PmATP4^OR line); assay: SBFI fluorescence of intracellular Na+ in saponin-isolated trophozoites; conditions: 0.1 µM, physiological saline, pH 7.1, 37°C
Text: SBFI fluorescence of intracellular Na+ in saponin-isolated trophozoites on PmATP4 (PmATP4^OR line)

[9] = biological target: T1, PkATP4 (PkATP4^OR line); assay: as above; conditions: 0.1 µM, physiological saline, pH 7.1, 37°C
Text: SBFI fluorescence of intracellular Na+ in saponin-isolated trophozoites on PkATP4 (PkATP4^OR line)

[10] = biological target: T3, PfATP4 (PfATP4^OR line); assay: growth inhibition of orthologue replacement parasite line, SYBR green I (whole-cell read-out); conditions: intact P. knowlesi parasites in erythrocytes, 27 h (one life cycle); not a direct enzyme assay
Text: growth inhibition of orthologue replacement parasite line, SYBR green I (whole-cell read-out) on PfATP4 (PfATP4^OR line)

T3 sequence (A0A143ZZK9 whole entry): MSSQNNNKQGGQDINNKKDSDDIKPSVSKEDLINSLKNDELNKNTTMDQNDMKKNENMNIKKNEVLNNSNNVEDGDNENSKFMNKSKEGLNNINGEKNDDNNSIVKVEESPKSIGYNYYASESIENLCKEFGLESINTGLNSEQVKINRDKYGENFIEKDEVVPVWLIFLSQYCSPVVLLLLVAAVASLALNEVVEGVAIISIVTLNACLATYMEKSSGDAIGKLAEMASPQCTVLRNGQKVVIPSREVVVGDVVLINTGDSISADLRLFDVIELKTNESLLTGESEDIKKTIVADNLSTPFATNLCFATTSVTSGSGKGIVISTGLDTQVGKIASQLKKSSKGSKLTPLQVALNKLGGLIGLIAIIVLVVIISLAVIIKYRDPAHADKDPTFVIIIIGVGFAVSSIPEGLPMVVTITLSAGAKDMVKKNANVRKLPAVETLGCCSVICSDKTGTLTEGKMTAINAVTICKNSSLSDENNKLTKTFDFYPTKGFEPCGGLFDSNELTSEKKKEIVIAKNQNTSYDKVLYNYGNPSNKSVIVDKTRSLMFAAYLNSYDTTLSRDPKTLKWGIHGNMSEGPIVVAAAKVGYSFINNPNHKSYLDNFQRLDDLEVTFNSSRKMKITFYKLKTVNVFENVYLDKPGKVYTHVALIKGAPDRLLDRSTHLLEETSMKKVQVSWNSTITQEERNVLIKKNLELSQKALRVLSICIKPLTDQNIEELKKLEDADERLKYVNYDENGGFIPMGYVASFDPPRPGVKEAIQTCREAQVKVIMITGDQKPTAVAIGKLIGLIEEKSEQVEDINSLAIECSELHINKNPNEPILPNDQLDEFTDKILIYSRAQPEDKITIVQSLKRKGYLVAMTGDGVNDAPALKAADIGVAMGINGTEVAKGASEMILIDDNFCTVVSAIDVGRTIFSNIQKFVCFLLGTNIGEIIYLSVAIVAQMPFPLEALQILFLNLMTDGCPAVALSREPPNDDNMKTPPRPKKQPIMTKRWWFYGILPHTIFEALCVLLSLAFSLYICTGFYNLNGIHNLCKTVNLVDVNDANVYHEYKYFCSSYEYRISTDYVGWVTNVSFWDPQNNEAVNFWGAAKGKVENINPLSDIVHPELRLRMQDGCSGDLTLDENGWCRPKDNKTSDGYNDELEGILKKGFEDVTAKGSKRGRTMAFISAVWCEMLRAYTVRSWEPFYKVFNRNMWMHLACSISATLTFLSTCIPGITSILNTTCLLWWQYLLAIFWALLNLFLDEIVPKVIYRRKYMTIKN

Structure (SMILES): C[C@H]1Cc2c([nH]c3cc(Cl)c(F)cc23)[C@@]2(N1)C(=O)Nc1ccc(Cl)cc12 [cipargamin]
- EC50, nM (P value) / Cipargamin [1]: 13.5 ± 2.4 nM
- EC50, nM (P value) / Cipargamin [2]: 9.44 ± 2.0 nM
- Rate of increase in [Na^+]i 10 min after cipargamin exposure, μM/s (P value) [3]: 203.2 ± 54.1 µM/s
- EC50, nM (P value) / Cipargamin [4]: 22.9 ± 4.2 nM
- Rate of increase in [Na^+]i 10 min after cipargamin exposure, μM/s (P value) [5]: 96.6 ± 47.3 µM/s
- Rate of increase in [Na^+]i 10 min after cipargamin exposure, μM/s (P value) [6]: 41.5 ± 8.85 µM/s
- EC50, nM (P value) / Cipargamin [7]: 34.1 ± 1.6 nM
- Rate of increase in [Na^+]i 10 min after cipargamin exposure, μM/s (P value) [8]: 35.7 ± 8.07 µM/s
- Rate of increase in [Na^+]i 10 min after cipargamin exposure, μM/s (P value) [9]: 35.8 ± 9.98 µM/s
- EC50, nM (P value) / Cipargamin [10]: 1.62 ± 0.37 nM
